Two compounds from ChEMBL document CHEMBL5678818, “Discovery of potent SOS1 inhibitors that block RAS activation via disruption of the RAS-SOS1 interaction” (Proc Natl Acad Sci U S A, 2019) can be followed below.

Test [1] relates to Tyrosine-protein kinase ABL1 (Homo sapiens), P00519 [T315I]. The experiment in a line: Inhibition of phosphorylated ABL1 T315I mutant (unknown origin) assessed as residual activity at 1000 nM by KINOMEscan analysis relative to control.
In test [2] the test system is Epidermal growth factor receptor (Homo sapiens), P00533 [T790M]. The experiment in a line: Inhibition of EGFR T790M mutant (unknown origin) assessed as residual activity at 1000 nM by KINOMEscan analysis relative to control.
Test [3] deals with Tyrosine-protein kinase JAK1 (Homo sapiens) (UniProt P23458). The experiment in a line: Inhibition of JAK1 JH1 catalytic domain (unknown origin) assessed as residual activity at 1000 nM by KINOMEscan analysis relative to control.
Tyrosine-protein kinase JAK1 (Homo sapiens), sequence (P23458 whole entry, the tested form may be a part): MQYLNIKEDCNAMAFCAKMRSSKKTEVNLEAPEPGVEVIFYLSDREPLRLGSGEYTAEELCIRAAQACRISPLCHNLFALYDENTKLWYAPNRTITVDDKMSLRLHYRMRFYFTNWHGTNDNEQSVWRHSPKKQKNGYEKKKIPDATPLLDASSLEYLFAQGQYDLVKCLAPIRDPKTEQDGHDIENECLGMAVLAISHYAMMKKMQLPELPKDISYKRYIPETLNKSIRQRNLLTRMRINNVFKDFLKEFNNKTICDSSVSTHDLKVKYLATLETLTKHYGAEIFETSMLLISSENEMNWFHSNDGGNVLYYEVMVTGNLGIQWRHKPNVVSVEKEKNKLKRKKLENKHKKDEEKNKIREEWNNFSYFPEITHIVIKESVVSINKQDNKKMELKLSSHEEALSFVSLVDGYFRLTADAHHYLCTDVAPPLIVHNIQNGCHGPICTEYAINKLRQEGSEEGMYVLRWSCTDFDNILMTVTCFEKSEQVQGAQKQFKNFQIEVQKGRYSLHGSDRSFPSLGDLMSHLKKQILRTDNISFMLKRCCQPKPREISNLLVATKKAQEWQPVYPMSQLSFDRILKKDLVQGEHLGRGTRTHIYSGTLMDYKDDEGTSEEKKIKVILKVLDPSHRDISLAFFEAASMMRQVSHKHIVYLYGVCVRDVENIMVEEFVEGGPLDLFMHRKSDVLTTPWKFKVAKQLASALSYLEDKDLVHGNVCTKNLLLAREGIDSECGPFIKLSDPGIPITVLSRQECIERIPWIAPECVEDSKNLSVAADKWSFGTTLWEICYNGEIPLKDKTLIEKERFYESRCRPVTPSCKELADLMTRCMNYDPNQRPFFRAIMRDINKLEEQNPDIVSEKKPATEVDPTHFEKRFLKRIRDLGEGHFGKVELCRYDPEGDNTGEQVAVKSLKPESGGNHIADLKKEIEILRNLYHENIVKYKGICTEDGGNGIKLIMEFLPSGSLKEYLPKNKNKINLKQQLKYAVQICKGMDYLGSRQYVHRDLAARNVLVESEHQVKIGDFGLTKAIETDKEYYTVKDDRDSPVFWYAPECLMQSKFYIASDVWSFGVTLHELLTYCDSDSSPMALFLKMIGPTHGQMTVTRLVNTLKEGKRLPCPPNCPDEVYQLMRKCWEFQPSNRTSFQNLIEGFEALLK
Test [4] has as its target T1, Mitogen-activated protein kinase kinase kinase 3 (Homo sapiens) (UniProt Q99759).
T1 sequence (whole entry): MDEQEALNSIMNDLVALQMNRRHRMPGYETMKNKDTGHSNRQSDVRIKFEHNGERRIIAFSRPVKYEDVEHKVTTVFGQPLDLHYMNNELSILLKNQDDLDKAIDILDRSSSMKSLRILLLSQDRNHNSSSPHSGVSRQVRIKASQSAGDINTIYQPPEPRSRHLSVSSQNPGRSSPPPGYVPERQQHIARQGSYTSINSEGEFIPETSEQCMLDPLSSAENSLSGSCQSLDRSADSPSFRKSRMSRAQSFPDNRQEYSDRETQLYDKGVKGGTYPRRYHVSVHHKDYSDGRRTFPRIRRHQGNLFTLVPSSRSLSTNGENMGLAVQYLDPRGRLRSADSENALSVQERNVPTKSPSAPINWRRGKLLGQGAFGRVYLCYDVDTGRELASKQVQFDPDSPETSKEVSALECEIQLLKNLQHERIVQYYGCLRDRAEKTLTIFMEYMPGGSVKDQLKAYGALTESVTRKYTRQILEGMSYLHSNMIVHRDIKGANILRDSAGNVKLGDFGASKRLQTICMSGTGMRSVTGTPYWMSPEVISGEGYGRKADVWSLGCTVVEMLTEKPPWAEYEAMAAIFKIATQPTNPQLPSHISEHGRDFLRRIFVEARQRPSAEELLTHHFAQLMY
The experiment in a line: Inhibition of MAP3K3 (unknown origin) assessed as residual activity at 1000 nM by KINOMEscan analysis relative to control.

Test [5] addresses MAP kinase-activated protein kinase 2 (Homo sapiens) (UniProt P49137). The test is described as follows: Inhibition of MAPKAPK2 (unknown origin) assessed as residual activity at 1000 nM by KINOMEscan analysis relative to control.
Test [6] has as its target MAP kinase-interacting serine/threonine-protein kinase 1 (Homo sapiens) (UniProt Q9BUB5). The test is described as follows: Inhibition of MKNK1 (unknown origin) assessed as residual activity at 1000 nM by KINOMEscan analysis relative to control.
The target in test [7] is Serine/threonine-protein kinase mTOR (Homo sapiens) (UniProt P42345). The experiment in a line: Inhibition of MTOR (unknown origin) assessed as residual activity at 1000 nM by KINOMEscan analysis relative to control.
The test system of test [8] is Phosphatidylinositol 4,5-bisphosphate 3-kinase catalytic subunit alpha isoform (Homo sapiens), P42336 [H1047Y]. The test is described as follows: Inhibition of PIK3CA H1047Y mutant (unknown origin) assessed as residual activity at 1000 nM by KINOMEscan analysis relative to control.
Phosphatidylinositol 4,5-bisphosphate 3-kinase catalytic subunit alpha isoform (Homo sapiens), P42336 [H1047Y], sequence (P42336 whole entry H1047Y, canonical isoform): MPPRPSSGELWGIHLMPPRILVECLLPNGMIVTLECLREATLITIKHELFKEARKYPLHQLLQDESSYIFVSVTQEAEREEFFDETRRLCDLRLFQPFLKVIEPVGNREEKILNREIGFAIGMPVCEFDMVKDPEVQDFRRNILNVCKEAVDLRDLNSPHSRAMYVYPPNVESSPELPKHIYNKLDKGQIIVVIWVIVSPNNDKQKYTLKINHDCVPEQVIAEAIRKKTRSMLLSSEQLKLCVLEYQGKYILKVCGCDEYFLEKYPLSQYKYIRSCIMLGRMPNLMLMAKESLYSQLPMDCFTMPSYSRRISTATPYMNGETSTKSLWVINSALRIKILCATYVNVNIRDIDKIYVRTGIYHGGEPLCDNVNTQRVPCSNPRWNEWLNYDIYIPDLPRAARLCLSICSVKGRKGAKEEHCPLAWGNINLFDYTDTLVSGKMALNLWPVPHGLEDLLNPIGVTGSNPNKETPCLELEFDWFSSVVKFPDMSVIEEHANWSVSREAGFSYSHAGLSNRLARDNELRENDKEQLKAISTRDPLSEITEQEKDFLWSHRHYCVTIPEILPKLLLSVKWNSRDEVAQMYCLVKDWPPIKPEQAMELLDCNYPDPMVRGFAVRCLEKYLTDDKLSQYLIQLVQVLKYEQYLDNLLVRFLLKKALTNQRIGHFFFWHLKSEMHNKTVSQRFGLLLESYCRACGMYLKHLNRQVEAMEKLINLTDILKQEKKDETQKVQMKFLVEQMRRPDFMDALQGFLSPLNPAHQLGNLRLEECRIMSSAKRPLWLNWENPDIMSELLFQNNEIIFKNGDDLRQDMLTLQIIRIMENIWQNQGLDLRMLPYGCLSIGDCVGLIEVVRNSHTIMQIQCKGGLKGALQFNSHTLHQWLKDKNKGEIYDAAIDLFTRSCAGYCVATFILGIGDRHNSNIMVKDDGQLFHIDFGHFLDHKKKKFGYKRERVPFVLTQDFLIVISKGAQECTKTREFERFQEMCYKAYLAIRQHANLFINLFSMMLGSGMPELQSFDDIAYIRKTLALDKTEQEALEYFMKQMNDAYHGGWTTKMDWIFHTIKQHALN
In test [9] the target is cAMP-dependent protein kinase catalytic subunit alpha (Homo sapiens) (UniProt P17612). The experiment in a line: Inhibition of PKAC-alpha (unknown origin) assessed as residual activity at 1000 nM by KINOMEscan analysis relative to control.
The target in test [10] is Ribosomal protein S6 kinase alpha-2 (Homo sapiens) (UniProt Q15349). The test is described as follows: Inhibition of C-terminal RSK3 […] domain 2 (unknown origin) assessed as residual activity at 1000 nM by KINOMEscan analysis relative to control.
Ribosomal protein S6 kinase alpha-2 (Homo sapiens), sequence (Q15349 whole entry): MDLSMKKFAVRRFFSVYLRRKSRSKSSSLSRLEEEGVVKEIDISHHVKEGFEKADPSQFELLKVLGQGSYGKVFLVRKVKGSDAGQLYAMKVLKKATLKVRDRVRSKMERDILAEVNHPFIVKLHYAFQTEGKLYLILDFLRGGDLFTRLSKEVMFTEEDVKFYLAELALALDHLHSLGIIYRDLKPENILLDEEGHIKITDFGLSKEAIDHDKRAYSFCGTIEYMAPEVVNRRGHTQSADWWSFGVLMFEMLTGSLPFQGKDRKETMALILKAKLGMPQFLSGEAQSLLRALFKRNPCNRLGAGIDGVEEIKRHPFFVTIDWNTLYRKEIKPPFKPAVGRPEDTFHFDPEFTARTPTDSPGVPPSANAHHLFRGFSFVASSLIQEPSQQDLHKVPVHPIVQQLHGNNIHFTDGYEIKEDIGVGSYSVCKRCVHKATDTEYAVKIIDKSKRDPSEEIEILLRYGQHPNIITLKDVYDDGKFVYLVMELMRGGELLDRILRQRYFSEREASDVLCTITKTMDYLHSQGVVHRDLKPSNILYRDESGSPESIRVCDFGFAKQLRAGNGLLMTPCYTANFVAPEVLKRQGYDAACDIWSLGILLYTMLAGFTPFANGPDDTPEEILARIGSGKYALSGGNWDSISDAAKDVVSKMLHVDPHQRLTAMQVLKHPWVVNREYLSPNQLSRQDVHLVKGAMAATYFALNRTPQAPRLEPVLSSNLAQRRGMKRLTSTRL
The target in test [11] is T2, Mitogen-activated protein kinase kinase kinase 7 (Homo sapiens) (UniProt O43318).
T2 sequence (whole entry): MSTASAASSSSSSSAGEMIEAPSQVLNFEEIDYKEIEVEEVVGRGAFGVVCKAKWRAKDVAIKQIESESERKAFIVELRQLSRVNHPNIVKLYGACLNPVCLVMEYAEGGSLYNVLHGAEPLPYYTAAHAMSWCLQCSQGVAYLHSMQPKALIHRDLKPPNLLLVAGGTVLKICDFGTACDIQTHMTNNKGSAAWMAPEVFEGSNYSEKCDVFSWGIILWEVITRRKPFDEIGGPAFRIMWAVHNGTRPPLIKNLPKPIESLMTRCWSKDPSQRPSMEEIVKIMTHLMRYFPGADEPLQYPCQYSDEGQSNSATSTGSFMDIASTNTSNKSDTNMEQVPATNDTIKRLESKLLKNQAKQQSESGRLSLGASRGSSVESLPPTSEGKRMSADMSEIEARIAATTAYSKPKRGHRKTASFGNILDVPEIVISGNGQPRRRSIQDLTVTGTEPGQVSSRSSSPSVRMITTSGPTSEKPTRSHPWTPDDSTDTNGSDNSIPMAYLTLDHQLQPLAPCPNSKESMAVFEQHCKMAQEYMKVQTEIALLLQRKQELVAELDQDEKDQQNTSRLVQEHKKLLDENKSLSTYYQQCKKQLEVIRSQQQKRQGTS
The experiment in a line: Inhibition of TAK1 (unknown origin) assessed as residual activity at 1000 nM by KINOMEscan analysis relative to control.

Test [12] addresses T3, Serine/threonine-protein kinase TBK1 (Homo sapiens) (UniProt Q9UHD2).
T3 sequence (whole entry): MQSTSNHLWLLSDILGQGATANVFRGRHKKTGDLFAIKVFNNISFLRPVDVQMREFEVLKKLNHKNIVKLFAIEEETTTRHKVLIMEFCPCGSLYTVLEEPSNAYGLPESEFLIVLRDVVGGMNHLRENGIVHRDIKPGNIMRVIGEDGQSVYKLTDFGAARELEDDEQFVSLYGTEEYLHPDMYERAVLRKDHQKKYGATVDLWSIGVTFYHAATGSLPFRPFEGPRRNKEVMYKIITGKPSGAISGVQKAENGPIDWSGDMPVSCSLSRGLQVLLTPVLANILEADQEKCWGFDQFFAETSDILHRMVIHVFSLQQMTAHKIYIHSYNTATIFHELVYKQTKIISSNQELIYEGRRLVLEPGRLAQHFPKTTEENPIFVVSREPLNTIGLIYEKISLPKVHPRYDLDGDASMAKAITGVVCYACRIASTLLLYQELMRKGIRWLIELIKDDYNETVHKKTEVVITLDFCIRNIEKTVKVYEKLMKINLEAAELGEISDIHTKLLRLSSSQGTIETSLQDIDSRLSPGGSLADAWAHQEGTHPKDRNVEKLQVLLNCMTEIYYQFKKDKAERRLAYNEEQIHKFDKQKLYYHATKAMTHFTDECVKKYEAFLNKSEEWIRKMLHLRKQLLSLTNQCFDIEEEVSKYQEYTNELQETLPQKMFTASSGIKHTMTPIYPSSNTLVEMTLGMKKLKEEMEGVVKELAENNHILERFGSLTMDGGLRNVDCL
The experiment in a line: Inhibition of TBK1 (unknown origin) assessed as residual activity at 1000 nM by KINOMEscan analysis relative to control.

MAP kinase-interacting serine/threonine-protein kinase 1 (Homo sapiens), sequence (Q9BUB5 whole entry, looked up): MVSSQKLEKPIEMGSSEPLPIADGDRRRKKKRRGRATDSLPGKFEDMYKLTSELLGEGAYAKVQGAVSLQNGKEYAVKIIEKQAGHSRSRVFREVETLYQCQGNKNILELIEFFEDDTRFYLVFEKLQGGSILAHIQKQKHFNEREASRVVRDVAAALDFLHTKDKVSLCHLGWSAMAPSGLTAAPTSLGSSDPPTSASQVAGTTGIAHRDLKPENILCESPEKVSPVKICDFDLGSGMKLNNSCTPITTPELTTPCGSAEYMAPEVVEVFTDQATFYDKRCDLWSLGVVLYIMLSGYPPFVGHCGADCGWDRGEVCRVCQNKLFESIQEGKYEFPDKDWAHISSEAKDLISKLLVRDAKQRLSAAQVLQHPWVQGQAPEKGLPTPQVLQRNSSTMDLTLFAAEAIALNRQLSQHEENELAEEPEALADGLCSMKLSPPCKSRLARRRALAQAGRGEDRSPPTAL
MAP kinase-activated protein kinase 2 (Homo sapiens), sequence (P49137 whole entry, looked up): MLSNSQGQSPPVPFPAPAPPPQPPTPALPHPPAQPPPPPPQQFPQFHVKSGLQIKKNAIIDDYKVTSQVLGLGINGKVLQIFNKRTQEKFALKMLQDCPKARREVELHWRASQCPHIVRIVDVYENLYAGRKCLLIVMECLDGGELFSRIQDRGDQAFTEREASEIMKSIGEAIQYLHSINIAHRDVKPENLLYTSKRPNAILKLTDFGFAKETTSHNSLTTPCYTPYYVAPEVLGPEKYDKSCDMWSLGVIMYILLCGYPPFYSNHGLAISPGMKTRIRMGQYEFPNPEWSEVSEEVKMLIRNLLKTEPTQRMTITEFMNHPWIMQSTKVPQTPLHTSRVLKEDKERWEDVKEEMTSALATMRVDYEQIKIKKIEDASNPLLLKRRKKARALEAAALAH

In the case of `COc1cc2ncnc(N[C@H](C)c3cccc4ccccc34)c2cc1OC`, the Activity in test [1] turned out to be 96%; in [2], 81%; in test [3], 87%; in test [4], 100%; in [5], 100%; in test [6], 56%. Moreover, the Activity in [7] was found to be 95%; in test [8] it was 89%; in [9], 95%; in test [10] it was 96%; in [11] it was 85%; in test [12], 100%.

`COc1cc2nc(C)nc(N[C@H](C)c3cccc(-c4cn[nH]c4)c3)c2cc1OC`: the Activity in test [1] amounted to 99%; in test [2], 87%; in [3], 100%; in test [4] it was 95%; in test [5], 99%; in [6] it was 100%. Further, the Activity in test [7] was determined as 62%; in test [8], 63%; in [9], 97%; in test [10] it was 67%; in [11] it was 100%; in test [12], 66%.
